Target: T1, glycine recognition site of the NMDA receptor complex (Rattus norvegicus, UniProt P35439)
T1 construct: The telencephalon (cerebral cortex, hippocampus, and striatum) was dissected and homogenized; from tissue; host or cells: rat telencephalon membranes (cerebral cortex, hippocampus, striatum), Triton X-100 treated
Assay: [3H]5,7-DCKA binding assay
Details: rat cortical membranes; none = no displacement at 100 μM
Procedure: General receptor-binding procedures. Male Sprague-Dawley rats were decapitated and their brains removed rapidly. The telencephalon (cerebral cortex, hippocampus, and striatum) was dissected and homogenized in 20 volumes of ice-cold 0.32 M sucrose, 20 mM HEPES-KOH (pH 7.2 at room temperature) containing protease inhibitors ([…], 5 mg/mL antipain, 20 mg/mL soybean trypsin inhibitor, 500 μM benzamidine, […] aprotinin, and 500 μM phenylmethylsulfonyl fluoride) with a motor driven glass-TEFLON® fluorocarbon homogenizer (8-10 strokes at setting 1). The homogenate was centrifuged at 800 g for 10 minutes. The pellet was discarded and the supernatant was centrifuged at 20,000 g for 20 minutes. The resulting pellet was resuspended in 20 volumes of distilled water containing 500 μM benzamidine and centrifuged for 20 minutes at 7500 g. Then the supernatant and buffy coat were centrifuged three times (51,500 g for 20 minutes) in the presence of distilled water containing 500 μM benzamidine. All centrifugation steps were carried out at 4° C. The final pellet was frozen rapidly at −80° C.
On the day of the assay, the pelleted membranes were resuspended in 20 volumes of 50 mM HEPES-KOH buffer, pH 7.4, and incubated for 20 minutes at 37° C. followed by centrifugation (51,500 g for 20 minutes). Membranes were then resuspended in 50 mM HEPES-KOH buffer (pH 7.8) containing 0.08% Triton X-100. After stirring for 30 minutes at 4° C., the membranes were pelleted by centrifugation (100,000 g for 20 minutes). The membranes were then washed twice by resuspension in the buffer appropriate for the binding assay and centrifugation (100,000 g for 20 minutes). The final pellet was suspended in assay buffer. The amount of protein in the final membrane preparation was determined with the bicinchoninic acid method (BCA; Pierce Chemical Co., Rockford, Ill.). The final protein concentration used for our studies was 300 to 600 μg/mL. Receptor-binding protocols described below were adapted from published procedures. For all assays, the samples, all in duplicate or triplicate, were placed into scintillation vials containing 5.5 mL of scintillation liquid (Ultima Gold; Packard Instrument Co., Inc., Meriden, Conn.) and the retained radioactivity was determined by conventional scintillation spectroscopy with a Beckman TA-6000 scintillation counter. Radio-ligands were purchased from DuPont-NEN (Boston, Mass.).
[^3H]5,7-Dichlorokynurenic acid (5,7-DCKA)-binding assay. The glycine recognition site of the NMDA receptor complex was labeled with the competitive antagonist [^3H]5,7-dichlorokynurenic acid (5,7-DCKA). […]
Data Analysis. The data were analyzed with SigmaPlot 5.0 and SigmaStat 2.0 (Jandel Scientific, Corte Madera, Calif.) software. […]

Compound: O=C(O)c1cc(NC(=O)N(c2ccccc2)c2ccccc2)c2c(Cl)cc(Cl)cc2n1 [DCUKA, N,N-diphenyl-4-ureido-5,7-dichloro-2-carboxyquinoline]
- IC50: 28 µM

Reference: patent US20110184018A1, “METHOD FOR TREATING PERIPHERAL NEUROPATHIC PAIN” (LOHOCLA RESEARCH CORPORATION, priority 2005, published 2011)
